In data set [1] the test system is T. cruzi (Tulahuen strain). Kind of data set: In vitro anti-T. cruzi evaluation in an intracellular model (trypomastigote and amastigote forms, L929 host cells, β-galactosidase readout). In kind it is cell-based, Trypanosoma cruzi. The settings on record: for IC50: Tulahuen strain, intracellular trypomastigote and amastigote forms in L929 fibroblasts, 96 h, read-out: IC50 T. cruzi; for SI: selectivity index, L929 cells vs T. cruzi. The procedure:
Derivatives 5–10 were evaluated in vitro against T. cruzi in an intracellular model on the trypomastigote and amastigote forms of the parasite of the Tulahuen strain [20]. This model is interesting because it mimics the life cycle of the parasite, as both clinically relevant forms are present in the environment. The mammalian host cells used were fibroblasts from L929 mice.
This assay was performed as previously described by Buckner et al. (1996) using T. cruzi (Tulahuen strain), which expresses the β-galactosidase gene of Escherichia coli. Infectious trypomastigote forms were obtained by culturing fibroblast monolayers of L929 mice in RPMI-1640 medium (pH 7.2–7.4) without phenol red (Gibco BRL), containing 10% fetal bovine serum and 2 mM glutamine. For the bioassay, 4000 L929 cells in 80 µL of supplemented medium were added to each well of a 96-well microtiter plate. After overnight incubation, 40,000 trypomastigotes in 20 µL were added to the cells and incubated for 2 h. […] The medium was then replaced with compound solutions at 1.0 µg/mL in fresh medium (200 µL), and the plate was incubated for 96 h at 37 °C. After this period, 50 µL of chlorophenol D-galactopyranoside red (500 µM) in 0.5% Nonidet P40 was added to each well, and the plate was incubated for 18 h at 37 °C. After this, the absorbance was measured at 570 nm. Controls with uninfected cells and infected cells treated with benznidazole were performed in parallel. The results are expressed as the percentage of T. cruzi growth inhibition in cells tested with compost compared to infected and untreated cells. The tests were performed in triplicate.

The nature of data set [2]: In vitro cytotoxicity of L929 cells (AlamarBlue). In kind it is cell-based, mice. The settings on record: mouse, four days. The procedure: For this bioassay, 4000 mammalian cells in 200 µL of RPMI-1640 medium (pH 7.2–7.4) (Gibco BRL) plus 10% fetal bovine serum and 2 mM glutamine were added to each well of a 96-well microtiter plate, which was incubated for three days at 37 °C. […] After this period, 20 µL of AlamarBlue^TM was added to each well, and the plate was incubated for another 4–6 h. Then, the absorbance was measured at 570 nm. Controls with cells not treated and treated with benznidazole were performed in parallel, and triplicates were performed on the same plate. The results are expressed as the percent difference in the reduction between treated (CT) and untreated cells (UT) using the following equation:(1) 117.216Abs570 TC−80.586(Abs600 TC)/117.216Abs570 UT−80.586(Abs600 UT) × 100
(In general: The colour change of resazurin is a common sign of viable cells or microbes.)

Data set [3] deals with T. cruzi nitroreductase enzyme (TcNTR). Kind of data set: Kinetic assay with Trypanosoma cruzi nitroreductase enzyme (NADH oxidation). In kind it is biochemical. The settings on record: for Kobs Deriv./Kobs BZN 50 µM: 50 µM derivative. The procedure:
To determine a potential mechanism of action, nitroazole derivatives 5, 6, 8 and 9 were evaluated as substrates of the T. cruzi nitroreductase enzyme (TcNTR) and compared to BZN, the reference prodrug (Table 2). The enzymatic activity was measured by monitoring the oxidation of NADH, the first substrate of the enzyme, via spectrophotometric assays. […] At a concentration of 25 µM, derivatives 5 and 8 were metabolized at rates 2.3 and 2.6 times higher than that of BZN, respectively. At 50 µM, the compounds presented metabolism rates 1.6 and 3.0 times higher than that of BZN, respectively.
The protocols for expressing, purifying and conducting kinetic analysis with the recombinant TcNTR enzyme were adapted from the methods originally developed by Shane Wilkinson, with certain modifications.
For the kinetics assays, it was prepared a 200 μL solution which included 50 mM Tris-Base at pH 7.5, with a constant concentration of both NADH (50 μM) and the substances 5, 6, 8, 9 or BZN. Specifically, two distinct fixed concentrations (25 and 50 μM) of the substances 5, 6, 8, 9 or BZN were tested. These prepared mixtures were then incubated for 5 min at room temperature. Subsequently, the reaction was initiated by adding NTR to achieve a final concentration of 10 μg/mL. The reaction rates were monitored using a Hitachi U-2900 spectrophotometer, measuring the consumption of the primary substrate, NADH (λ = 340 nm; ε = 6.220 M^−1 cm^−1), over a 2-min interval. The resulting data curves were analyzed through linear regression using OriginPro 2016 software. To evaluate the reaction rate (Kobs) obtained from the 25 and 50 μM concentrations of each substrate, comparisons were made with the reference values for BZN. Measurement errors were calculated using the formula: Error = Z × σ/√n, where ‘Z’ denotes the critical value, ‘σ’ represents the standard deviation and ‘n’ is the number of test measurements, which were performed at least in triplicate.

In another data set the test system is T. cruzi. Further details: method as in PMID 10602737. The settings on record: in vitro; read-out: IC50 against T. cruzi; cited from earlier work.
Setting [4] is: Trypanosoma cruzi, TULAHUEN, L929, 96 h.

Read-outs that look alike come from different tables or passages of the source.

Take `O=C(Cn1cncn1)c1ccc(F)cc1F` [Compound 7, 1-(2,4-Difluorophenyl)-2-(1H-1,2,4-triazol-1-yl)ethanone]: the IC50 in data set [1] (setting [4]) was over 200 µM.

The molecule `O=C(Cn1cnc([N+](=O)[O-])n1)c1ccc(F)cc1F` [Compound 5, 1-(2,4-Difluorophenyl)-2-(3-nitro-1H-1,2,4-triazol-1-yl)ethanone] returned a melting point of 117 to 119 °C. Further, in data set [1] (setting [4]), the IC50 worked out at 1.8 ± 0.07 µM. The “times more potent against T. cruzi than 6” value in data set [1] (ratio of IC50 T. cruzi to 2-nitroimidazole ketone 6) is on record as “approximately 50”. Besides, the SI in data set [1] is 667. This molecule registered a CC50 at 4 days in data set [2] of 1200 ± 0.01 µM. The “Kobs Deriv./Kobs BZN 25 µM” value in data set [3] (25 µM derivative, ratio of mean Kobs to BZN) came out at 2.3. Also, in data set [3] (50 µM), the “consumption rate by TcNTR, times higher than that of 6” value is recorded as 6.6. Moreover, the “Kobs Deriv./Kobs BZN 50 µM” value in data set [3] (ratio of mean Kobs to BZN) is given as 1.6.

For `O=C(Cn1ccnc1[N+](=O)[O-])c1ccc(F)cc1F` [Compound 6, 1-(2,4-Difluorophenyl)-2-(2-nitro-1H-imidazol-1-yl)ethanone], the melting point fell in the range of 128 to 130 °C. In addition, in data set [1] (setting [4]), the IC50 amounted to 90.9 µM. In addition, in data set [1], the IC50 stood at 91 ± 4 µM and the SI amounted to 7. Moreover, it took 629 ± 61 µM to reach half-maximal cytotoxicity in data set [2] (CC50 at 4 days). Moreover, the “Kobs Deriv./Kobs BZN 50 µM” value in data set [3] (ratio of mean Kobs to BZN) was determined as 0.3.

As for `CC[C@@H]([C@H](C)O)n1ncn(-c2ccc(N3CCN(c4ccc(OC[C@@H]5CO[C@@](Cn6cncn6)(c6ccc(F)cc6F)C5)cc4)CC3)cc2)c1=O` [posaconazole], in the data set on T. cruzi, the IC50 was under 0.001 µM.

`OC(Cn1cncn1)c1ccc(F)cc1F` (centres unmarked) [Compound 10, 1-(2,4-Difluorophenyl)-2-(1H-1,2,4-triazol-1-yl)ethanol] returned a melting point of 119 to 121 °C. In data set [1] (setting [4]), the IC50 is 120 ± 90 µM. Also, in data set [1], the SI is listed as over 27. Further, the CC50 at 4 days in data set [2] was over 3200 µM.

What is called IC50 is the concentration needed to halve the response being measured. For orientation: CC50 means the concentration giving 50% cytotoxicity. Low values mean harm at low concentration, high ones better tolerance by the cells. As a reminder, the melting point is the temperature, or range, at which the solid turns liquid.

Source of the values: article PMC10672842, “Anti-Trypanosoma cruzi Activity, Mutagenicity, Hepatocytotoxicity and Nitroreductase Enzyme Evaluation of 3-Nitrotriazole, 2-Nitroimidazole and Triazole Derivatives” (Molecules, 2023).
